# Measurements published in patent publication EP2493892B1, “QUINUCLIDINE COMPOUNDS AS ALPHA-7 NICOTINIC ACETYLCHOLINE RECEPTOR LIGANDS” (Bristol-Myers Squibb Company, priority 2009, dated 2011).
# Target: T1, α-7 nicotinic ACh receptor ion channels expressed in mammalian HEK 293 cells (Rattus norvegicus, UniProt Q05941)
# T1 construct: expressed in transfected cells
# Test: Ca2+-sensitive, fluorescence-based assay for α-7 nicotinic acetylcholine receptor channel function in mammalian cells (FLIPR)
# Format: cell-based
# Conditions: agonist activity, Ca2+ flux, read-out: FLIPR α7 activity rating (EC50)
# Description: • I) α7 Nicotinic Acetycholine Receptor Binding. Membranes were prepared for binding using HEK293 cells stably expressing the rat α7 nicotinic acetycholine receptor (rat α7 nAChR). Cells were homogenized at 4°C in hypotonic lysis buffer consisting of 10 mM Tris (pH 7.4), 5 mM EDTA and protease inhibitors and centrifuged at 32000 xg for 20 minutes. The pellet was washed once in membrane wash buffer consisting of 50 mM Tris (pH 7.4), 1 mM EDTA and protease inhibitors and centrifuged at 32000 xg for 20 minutes. This pellet was then resuspended in assay buffer consisting 50 mM KH2PO4 (pH 7.4 at 25°C), 1 mM EDTA, 0.005 % Triton-X 100 and 0.1% (v/v) Sigma Protease Inhibitor Cocktail. Aliquots were then frozen in dry ice/ethanol and kept at -80°C until the day of the assay. • II) A Ca^2+ -Sensitive, Fluorescence-Based Assay α-7 for Nicotinic Acetylcholine Receptor Channel Function In Mammalian Cells ("FLIPR"). Summary: Lead compounds are evaluated for agonist activity at α-7, α3β4, α4αβ2, and α1β1δ1ε sub-types of nicotinic ACh receptor ion channels expressed in mammalian HEK 293 cells. Agonist potency and efficacy values are determined from kinetic fluorescence Ca^2+ influx measurements made using a 384 well FLIPR (Fluorescence Image Plate Reader). […] The basal fluorescence from the cells is monitored in real time, followed by the acute addition of test compounds. […]
# T1 sequence (Q05941 23-502): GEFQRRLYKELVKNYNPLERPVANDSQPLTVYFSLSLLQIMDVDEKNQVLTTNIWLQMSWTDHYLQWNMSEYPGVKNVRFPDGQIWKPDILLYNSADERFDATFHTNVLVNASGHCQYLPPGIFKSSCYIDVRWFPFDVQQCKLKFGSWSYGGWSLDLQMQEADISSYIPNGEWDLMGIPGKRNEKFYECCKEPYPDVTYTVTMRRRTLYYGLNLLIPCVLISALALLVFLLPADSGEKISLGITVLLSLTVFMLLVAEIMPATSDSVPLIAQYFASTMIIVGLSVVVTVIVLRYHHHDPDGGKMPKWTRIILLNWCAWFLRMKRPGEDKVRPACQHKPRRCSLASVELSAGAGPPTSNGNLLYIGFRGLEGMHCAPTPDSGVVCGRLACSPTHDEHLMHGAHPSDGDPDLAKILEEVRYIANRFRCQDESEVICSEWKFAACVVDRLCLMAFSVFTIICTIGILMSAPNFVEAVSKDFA
compound,measurement,value
"c1cncc(-c2ccnc(NC3=NC[C@@]4(CN5CCC4CC5)O3)c2)c1 [Example 1, (R)-N-(3,4'-Bipyridin-2'-yl)-4H-1'-azaspiro[oxazole-5,3'-bicyclo[2.2.2]octan]-2-amine]",EC50,< 0.1 µM
